Measurements as given in the supplement of paper PMC10307832.

Experiments:
Assay in all cases: relative viability (nuclei count vs DMSO), 5 days (fraction); higher = more cells survive
[1] = system: H3255
Summary of the method: (§1)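 A single step with final 0.05% Triton X-100, 1% formaldehyde and 1 ug/ml Hoechst fixed the cells and stained nuclei 5 days after treatment. Lung cancer cell lines in 1536-well plates had been treated by pin tool the day after seeding with one drug alone or a fixed anchor-drug dose plus five library-drug doses (not always all listed) in √10 steps, and nuclei were counted on 4× images. Relative viability is the ratio of nuclei in treated wells to nuclei in vehicle wells, taken as the median of duplicate plates.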

[2] = system: NCI-H650
Summary of the method: as §1

[3] = system: NCI-H1650
Summary of the method: as §1

[4] = system: NCI-H838
Summary of the method: as §1

[5] = system: LU99A
Summary of the method: as §1

[6] = system: SW 1573
Summary of the method: as §1

[7] = system: PC-3 [JPC-3]
Summary of the method: as §1

[8] = system: NCI-H460
Summary of the method: as §1

[9] = system: COR-L23
Summary of the method: as §1

[10] = system: NCI-H1793
Summary of the method: as §1

[11] = system: PC-14
Summary of the method: as §1

[12] = system: LK-2
Summary of the method: as §1

[13] = system: NCI-H1563
Summary of the method: as §1

[14] = system: NCI-H727
Summary of the method: as §1

[15] = system: NCI-H23
Summary of the method: as §1

[16] = system: NCI-H2347
Summary of the method: as §1

[17] = system: HCC-44
Summary of the method: as §1

[18] = system: LCLC-103H
Summary of the method: as §1

[19] = system: A-427
Summary of the method: as §1

[20] = system: NCI-H1944
Summary of the method: as §1

[21] = system: 201T
Summary of the method: as §1

[22] = system: LCLC-97TM1
Summary of the method: as §1

CC1(C)CCC(c2ccc(Cl)cc2)=C(CN2CCN(c3ccc(C(=O)NS(=O)(=O)c4ccc(N[C@H](CCN5CCOCC5)CSc5ccccc5)c(S(=O)(=O)C(F)(F)F)c4)cc3)CC2)C1 [Navitoclax] + CS(=O)(=O)N1CCN(Cc2cc3nc(-c4cccc5[nH]ncc45)nc(N4CCOCC4)c3s2)CC1 [Pictilisib] (partner 1 µM)
relative viability ([1]; first compound 0.005 µM): 0.524
relative viability ([1]; first compound 0.01581 µM): 0.528
relative viability ([1]; first compound 0.05 µM): 0.549
relative viability ([1]; first compound 0.1581 µM): 0.45
relative viability ([1]; first compound 0.5 µM): 0.461
relative viability ([2]; first compound 0.005 µM): 0.765
relative viability ([2]; first compound 0.01581 µM): 0.948
relative viability ([2]; first compound 0.05 µM): 0.869
relative viability ([2]; first compound 0.1581 µM): 0.972
relative viability ([2]; first compound 0.5 µM): 0.448
relative viability ([3]; first compound 0.005 µM): 0.541
relative viability ([3]; first compound 0.01581 µM): 0.737
relative viability ([3]; first compound 0.05 µM): 0.656
relative viability ([3]; first compound 0.1581 µM): 0.623
relative viability ([3]; first compound 0.5 µM): 0.394
relative viability ([4]; first compound 0.005 µM): 0.435
relative viability ([4]; first compound 0.01581 µM): 0.571
relative viability ([4]; first compound 0.05 µM): 0.541
relative viability ([4]; first compound 0.1581 µM): 0.494
relative viability ([4]; first compound 0.5 µM): 0.486
relative viability ([5]; first compound 0.005 µM): 0.361
relative viability ([5]; first compound 0.01581 µM): 0.35
relative viability ([5]; first compound 0.05 µM): 0.336
relative viability ([5]; first compound 0.1581 µM): 0.34
relative viability ([5]; first compound 0.5 µM): 0.325
relative viability ([6]; first compound 0.005 µM): 0.466
relative viability ([6]; first compound 0.01581 µM): 0.54
relative viability ([6]; first compound 0.05 µM): 0.464
relative viability ([6]; first compound 0.1581 µM): 0.389
relative viability ([6]; first compound 0.5 µM): 0.503
relative viability ([7]; first compound 0.005 µM): 0.648
relative viability ([7]; first compound 0.01581 µM): 0.701
relative viability ([7]; first compound 0.05 µM): 0.87
relative viability ([7]; first compound 0.1581 µM): 0.678
relative viability ([7]; first compound 0.5 µM): 0.75
relative viability ([8]; first compound 0.005 µM): 0.348
relative viability ([8]; first compound 0.01581 µM): 0.419
relative viability ([8]; first compound 0.1581 µM): 0.326
relative viability ([8]; first compound 0.5 µM): 0.334
relative viability ([9]; first compound 0.005 µM): 0.733
relative viability ([9]; first compound 0.01581 µM): 0.919
relative viability ([9]; first compound 0.05 µM): 0.818
relative viability ([9]; first compound 0.1581 µM): 0.763
relative viability ([9]; first compound 0.5 µM): 0.932
relative viability ([10]; first compound 0.005 µM): 0.317
relative viability ([10]; first compound 0.01581 µM): 0.505
relative viability ([10]; first compound 0.05 µM): 0.301
relative viability ([10]; first compound 0.1581 µM): 0.226
relative viability ([10]; first compound 0.5 µM): 0.242
relative viability ([11]; first compound 0.005 µM): 0.648
relative viability ([11]; first compound 0.01581 µM): 0.956
relative viability ([11]; first compound 0.05 µM): 0.746
relative viability ([11]; first compound 0.1581 µM): 0.748
relative viability ([11]; first compound 0.5 µM): 0.68
relative viability ([12]; first compound 0.005 µM): 0.612
relative viability ([12]; first compound 0.01581 µM): 0.559
relative viability ([12]; first compound 0.05 µM): 0.536
relative viability ([12]; first compound 0.1581 µM): 0.657
relative viability ([12]; first compound 0.5 µM): 0.511
relative viability ([13]; first compound 0.005 µM): 0.603
relative viability ([13]; first compound 0.01581 µM): 0.667
relative viability ([13]; first compound 0.05 µM): 0.577
relative viability ([13]; first compound 0.1581 µM): 0.583
relative viability ([13]; first compound 0.5 µM): 0.693
relative viability ([14]; first compound 0.005 µM): 0.398
relative viability ([14]; first compound 0.01581 µM): 0.423
relative viability ([14]; first compound 0.1581 µM): 0.33
relative viability ([14]; first compound 0.5 µM): 0.171
relative viability ([15]; first compound 0.005 µM): 0.479
relative viability ([15]; first compound 0.01581 µM): 0.498
relative viability ([15]; first compound 0.05 µM): 0.483
relative viability ([15]; first compound 0.1581 µM): 0.433
relative viability ([15]; first compound 0.5 µM): 0.504
relative viability ([16]; first compound 0.005 µM): 0.63
relative viability ([16]; first compound 0.01581 µM): 0.702
relative viability ([16]; first compound 0.05 µM): 0.649
relative viability ([16]; first compound 0.1581 µM): 0.395
relative viability ([16]; first compound 0.5 µM): 0.734
relative viability ([17]; first compound 0.005 µM): 0.656
relative viability ([17]; first compound 0.01581 µM): 0.641
relative viability ([17]; first compound 0.05 µM): 0.849
relative viability ([17]; first compound 0.1581 µM): 0.57
relative viability ([17]; first compound 0.5 µM): 0.456
relative viability ([18]; first compound 0.005 µM): 0.588
relative viability ([18]; first compound 0.01581 µM): 0.611
relative viability ([18]; first compound 0.05 µM): 0.664
relative viability ([18]; first compound 0.1581 µM): 0.611
relative viability ([18]; first compound 0.5 µM): 0.799
relative viability ([19]; first compound 0.005 µM): 0.675
relative viability ([19]; first compound 0.01581 µM): 0.675
relative viability ([19]; first compound 0.05 µM): 0.659
relative viability ([19]; first compound 0.1581 µM): 0.753
relative viability ([19]; first compound 0.5 µM): 0.799
relative viability ([20]; first compound 0.005 µM): 0.336
relative viability ([20]; first compound 0.01581 µM): 0.371
relative viability ([20]; first compound 0.05 µM): 0.374
relative viability ([20]; first compound 0.1581 µM): 0.357
relative viability ([20]; first compound 0.5 µM): 0.397
relative viability ([21]; first compound 0.005 µM): 0.661
relative viability ([21]; first compound 0.01581 µM): 0.738
relative viability ([21]; first compound 0.05 µM): 0.677
relative viability ([21]; first compound 0.1581 µM): 0.65
relative viability ([21]; first compound 0.5 µM): 0.707
relative viability ([22]; first compound 0.005 µM): 0.255
relative viability ([22]; first compound 0.01581 µM): 0.146
relative viability ([22]; first compound 0.05 µM): 0.193
relative viability ([22]; first compound 0.1581 µM): 0.187
relative viability ([22]; first compound 0.5 µM): 0.153
